Test results: patent US20250304594A1, “METHYL (R)-2-(FLUOROMETHYL)-5-OXO-4-PHENYL-4,5,6,7-TETRAHYDRO-1H-CYCLOPENTA[B]PYRIDINE-3-CARBOXYLATE AND METHYL (R)-2-(FLUOROMETHYL)-5-OXO-4-PHENYL-1,4,5,7-TETRAHYDROFURO[3,4-B]PYRIDINE-3-CARBOXYLATE AS Cav1,2 ACTIVATORS” (Novartis AG, priority 2020, published 2025)

How the values were obtained:
[1] = biological target: T1, human CaV1.2 (Homo sapiens, UniProt Q13936); test: Sophion QPatch dose-response assay, whole-cell voltage clamp of barium currents in CaV1.2-HEK293(AUX) cells; assay type: cell-based; conditions: for Qpatch Emax: maximal fold change of peak inward current
T1 construct: expressed in transfected cells; host or cells: Flp-In 293 T-Rex (HEK293), monoclonal CaV1.2-HEK293(AUX) clone 2-19B; doxycycline-induced auxiliary subunits
Source text: (§1) The monoclonal CaV1.2-HEK293(AUX) cell line constitutively expresses human CaV1.2 alpha1C (α1C) subunit (CACNA1C) and has doxycycline-inducible expression of the alpha2delta (α2Δ2) auxiliary subunit (CACNA2D2) and beta2 (02) auxiliary subunit (CACNB2). To generate the cell line, expression vectors pcDNA5.0/FRT-TO-CACNA2D2-FCS-P2A-CACNB2 and pCMV6-entry-CACNA1C were established via gene synthesis and cloning. Here, pcDNA5.0/FRT-TO plasmid is from Invitrogen, pCMV6-entry is from Origene, FCS stands for Furin Cleavage Site, P2A is a peptide self-cleavage sequence derived from porcine teschovirus-1, and FRT is the Flippase recognition target site. Next, parental line Flp-In™ 293 T-Rex (Invitrogen) was transfected with pcDNA5.0/FRT-TO-CACNA2D2-FCS-P2A-CACNB2 and Flippase vector pOG44 (Invitrogen) to establish targeted integration of the CACNA2D2-FCS-P2A-CACNB2 expression cassette into the pre-engineered FRT site in Flp-In™ 293 T-Rex. This intermediate cell line was then transfected with pCMV6-entry-CACNA1C to establish stable CACNA1C expression. Clonal isolation was achieved under Neomycin selection.
Electrophysiological Characterization of CaV1.2 Activators Using CaV1.2-HEK293(AUX) Cell Line and QPatch
(§2) 24 hours prior an electrophysiology experiment, doxycycline (1 μg/ml) was added to the growth medium (Table 6), and 25 μM of verapamil was co-applied to prevent calcium influx triggered cell death. Cell confluency should reach 70%-80% right before the experiment. To harvest cells (from a T175 cm^2 flask as an example), growth media were removed completely, and the cells were rinsed with 10 mL of D-PBS. D-PBS was aspirated, and 10 mL of Detachin (Genlantis) was added and the plate was placed in a 37° C. incubator for 10 minutes. Detached cells were placed into a 15 mL conical tube and spun at 1000 rpm for 2 minutes. Supernatant was removed, and cells were re-suspended in QPatch complete media (Table 7) to desired cell density of 1.5-3 million cells per QPatch run. Each experimental run uses 1.5 mL of cells.
(§3) The cells suspension was taken to the Sophion QPatch platform that uses whole-cell voltage clamp to measure barium currents conducted through CaV1.2 on single-hole QPlates. Extracellular and intracellular patch clamp solutions are described in Tables 7 and 8, respectively. A dose-response assay protocol was used to determine the maximal fold change of peak inward current (Emax) and potency (EC50) of each compound. The protocol had eight liquid periods. The first liquid period was to stabilize current amplitude, which was monitored using repetitive 200-ms voltage pulses stepping from −80 mV to 0 mV. The second liquid period was to determine baseline current amplitude in the presence of vehicle control, using a single 20-ms voltage pulse stepping from −80 mV to 0 mV. The third through eighth liquid periods were used to ascertain a 6-dose response to compound treatments, also using single 20-ms voltage pulses stepping from −80 mV to 0 mV. The EC50 was generated using the following equation Iconcentration=Ibase+(Ifull−Ibase)*c^n/(XC50^n+c^n), where c is the concentration and n is the Hill coefficient constant. Ifull is the maximal current achievable, and Ibase is 0. A channel biophysics assay protocol was used to determine channel gating properties including current-voltage relationship (IV curves), half-way channel activation voltage (V1/2), rate of channel inactivation (tau), and amplitude of tail current. Among these, V1/2 was derived from fitting equation G(V)=Gvmin+(Gvmax−Gvmin)/(1+exp(−(V−V½)/Vslope)), where G stands for conductance, Gvmin equals 0, Gvmax is the maximal conductance, and Vslope is a slope factor. G(V) was pre-calculated from equation G(V)=I(V)/(V−0.06), for each experimentally applied depolarization potential (V) and the corresponding current amplitude (I(V)), and 0.06 in the equation was the experimentally determined reversal potential in volts. The protocol had four liquid periods.

[2] = biological target: T1, human CaV1.2; test: QPatch channel biophysics assay (channel gating, V1/2 of activation, inactivation) in CaV1.2-HEK293(AUX) cells; assay type: cell-based
Source text: as §1, with “selection. A cell clone (2-19B) with good voltage-dependent Barium current (see electrophysiology methods below) was selected for characterization of CaV1.2 activators.” for “selection.”
as §2
as §3, with “The protocol had four liquid periods.” left out

[3] = Table 10 comparative examples, single enantiomers of reported racemates
[4] = Table 9, 6-point dose response, 10 determinations per concentration, n = 1 unless * n = 2
[5] = Table 9, shift of half-way channel activation voltage V1/2

T1 sequence (Q13936 1-2138 isoform Q13936-23): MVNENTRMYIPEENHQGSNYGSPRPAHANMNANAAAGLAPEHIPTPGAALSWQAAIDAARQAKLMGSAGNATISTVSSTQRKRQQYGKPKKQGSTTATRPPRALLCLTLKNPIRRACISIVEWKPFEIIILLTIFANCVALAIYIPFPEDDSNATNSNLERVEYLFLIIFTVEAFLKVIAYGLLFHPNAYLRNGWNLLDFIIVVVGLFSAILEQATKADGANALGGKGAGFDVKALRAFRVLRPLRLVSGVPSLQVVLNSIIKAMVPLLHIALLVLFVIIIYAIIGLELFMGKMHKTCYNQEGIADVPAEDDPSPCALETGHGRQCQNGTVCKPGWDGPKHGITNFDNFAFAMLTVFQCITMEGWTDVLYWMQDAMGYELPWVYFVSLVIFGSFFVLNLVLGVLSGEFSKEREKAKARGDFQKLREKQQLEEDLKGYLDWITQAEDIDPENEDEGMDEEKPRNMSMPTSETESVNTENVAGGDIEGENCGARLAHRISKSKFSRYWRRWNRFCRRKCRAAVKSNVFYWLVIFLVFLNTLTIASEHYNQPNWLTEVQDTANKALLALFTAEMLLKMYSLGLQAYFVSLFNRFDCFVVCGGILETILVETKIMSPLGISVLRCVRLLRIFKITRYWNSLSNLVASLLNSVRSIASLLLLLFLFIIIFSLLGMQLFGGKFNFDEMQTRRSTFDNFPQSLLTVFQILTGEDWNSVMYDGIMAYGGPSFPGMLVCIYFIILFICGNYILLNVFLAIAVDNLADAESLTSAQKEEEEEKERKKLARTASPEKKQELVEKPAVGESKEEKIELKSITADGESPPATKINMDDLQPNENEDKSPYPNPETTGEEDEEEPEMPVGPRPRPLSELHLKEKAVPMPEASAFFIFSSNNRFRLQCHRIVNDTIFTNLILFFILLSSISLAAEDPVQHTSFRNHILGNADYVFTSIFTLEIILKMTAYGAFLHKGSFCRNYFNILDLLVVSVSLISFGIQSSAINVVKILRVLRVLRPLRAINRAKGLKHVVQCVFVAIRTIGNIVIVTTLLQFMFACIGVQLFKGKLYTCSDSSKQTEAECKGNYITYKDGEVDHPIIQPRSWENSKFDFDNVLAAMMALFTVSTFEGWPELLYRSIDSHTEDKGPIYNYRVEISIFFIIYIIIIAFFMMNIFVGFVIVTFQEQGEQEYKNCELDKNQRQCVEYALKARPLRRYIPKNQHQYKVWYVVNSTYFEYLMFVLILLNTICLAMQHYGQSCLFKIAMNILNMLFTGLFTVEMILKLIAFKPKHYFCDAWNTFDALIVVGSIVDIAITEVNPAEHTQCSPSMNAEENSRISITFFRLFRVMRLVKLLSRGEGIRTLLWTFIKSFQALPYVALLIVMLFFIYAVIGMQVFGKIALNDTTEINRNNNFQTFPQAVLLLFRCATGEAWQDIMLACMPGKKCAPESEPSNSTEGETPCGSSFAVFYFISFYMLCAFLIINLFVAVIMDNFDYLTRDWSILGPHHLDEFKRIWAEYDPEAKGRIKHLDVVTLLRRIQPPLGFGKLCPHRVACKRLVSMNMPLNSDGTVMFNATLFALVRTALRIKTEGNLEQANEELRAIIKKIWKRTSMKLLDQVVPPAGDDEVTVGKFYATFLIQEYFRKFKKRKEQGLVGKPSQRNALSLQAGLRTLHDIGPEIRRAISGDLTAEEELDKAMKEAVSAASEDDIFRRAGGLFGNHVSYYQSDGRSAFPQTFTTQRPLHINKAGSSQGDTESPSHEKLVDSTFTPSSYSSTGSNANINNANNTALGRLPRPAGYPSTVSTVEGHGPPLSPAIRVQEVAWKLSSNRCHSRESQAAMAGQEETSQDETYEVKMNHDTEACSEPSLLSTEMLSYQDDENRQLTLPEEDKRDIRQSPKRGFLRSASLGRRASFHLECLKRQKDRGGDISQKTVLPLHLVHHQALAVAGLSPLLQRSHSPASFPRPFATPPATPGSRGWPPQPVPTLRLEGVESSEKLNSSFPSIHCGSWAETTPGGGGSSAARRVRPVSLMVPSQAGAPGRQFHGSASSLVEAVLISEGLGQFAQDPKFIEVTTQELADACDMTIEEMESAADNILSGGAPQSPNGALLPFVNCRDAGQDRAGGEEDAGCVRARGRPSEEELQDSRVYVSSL
T1 sequence (Q9NY47 19-1001 partner limits assumed): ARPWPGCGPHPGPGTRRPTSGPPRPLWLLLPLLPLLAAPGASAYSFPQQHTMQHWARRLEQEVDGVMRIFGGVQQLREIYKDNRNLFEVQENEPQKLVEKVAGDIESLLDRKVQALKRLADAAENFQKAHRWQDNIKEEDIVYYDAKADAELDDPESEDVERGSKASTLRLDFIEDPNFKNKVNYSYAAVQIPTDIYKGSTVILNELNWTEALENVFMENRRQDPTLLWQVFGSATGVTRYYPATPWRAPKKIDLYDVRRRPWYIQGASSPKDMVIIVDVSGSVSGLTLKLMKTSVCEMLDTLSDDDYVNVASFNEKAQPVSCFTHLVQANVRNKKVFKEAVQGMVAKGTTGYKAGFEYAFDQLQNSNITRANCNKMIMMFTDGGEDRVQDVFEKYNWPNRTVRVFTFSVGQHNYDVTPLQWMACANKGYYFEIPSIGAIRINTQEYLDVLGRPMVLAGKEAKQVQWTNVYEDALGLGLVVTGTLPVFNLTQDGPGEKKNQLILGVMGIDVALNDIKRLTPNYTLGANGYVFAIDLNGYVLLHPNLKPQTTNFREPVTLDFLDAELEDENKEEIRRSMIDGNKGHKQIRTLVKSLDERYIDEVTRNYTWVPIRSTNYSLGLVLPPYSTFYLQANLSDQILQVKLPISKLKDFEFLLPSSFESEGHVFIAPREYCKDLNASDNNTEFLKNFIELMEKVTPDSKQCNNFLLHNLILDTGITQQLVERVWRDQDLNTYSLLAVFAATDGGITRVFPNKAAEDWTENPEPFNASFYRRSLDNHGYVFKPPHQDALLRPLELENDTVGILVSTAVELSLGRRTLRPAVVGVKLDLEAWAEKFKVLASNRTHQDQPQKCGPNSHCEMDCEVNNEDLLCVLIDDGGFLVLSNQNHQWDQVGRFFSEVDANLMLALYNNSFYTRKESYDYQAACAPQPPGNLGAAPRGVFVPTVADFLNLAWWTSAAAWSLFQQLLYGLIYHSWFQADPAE
T1 sequence (Q9NY47 1002-1150 partner limits assumed): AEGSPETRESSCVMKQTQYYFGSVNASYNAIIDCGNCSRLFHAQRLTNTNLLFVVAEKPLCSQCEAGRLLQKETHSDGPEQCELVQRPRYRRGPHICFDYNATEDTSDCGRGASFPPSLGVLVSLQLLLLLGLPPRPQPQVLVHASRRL
T1 sequence (Q08289 whole entry partner): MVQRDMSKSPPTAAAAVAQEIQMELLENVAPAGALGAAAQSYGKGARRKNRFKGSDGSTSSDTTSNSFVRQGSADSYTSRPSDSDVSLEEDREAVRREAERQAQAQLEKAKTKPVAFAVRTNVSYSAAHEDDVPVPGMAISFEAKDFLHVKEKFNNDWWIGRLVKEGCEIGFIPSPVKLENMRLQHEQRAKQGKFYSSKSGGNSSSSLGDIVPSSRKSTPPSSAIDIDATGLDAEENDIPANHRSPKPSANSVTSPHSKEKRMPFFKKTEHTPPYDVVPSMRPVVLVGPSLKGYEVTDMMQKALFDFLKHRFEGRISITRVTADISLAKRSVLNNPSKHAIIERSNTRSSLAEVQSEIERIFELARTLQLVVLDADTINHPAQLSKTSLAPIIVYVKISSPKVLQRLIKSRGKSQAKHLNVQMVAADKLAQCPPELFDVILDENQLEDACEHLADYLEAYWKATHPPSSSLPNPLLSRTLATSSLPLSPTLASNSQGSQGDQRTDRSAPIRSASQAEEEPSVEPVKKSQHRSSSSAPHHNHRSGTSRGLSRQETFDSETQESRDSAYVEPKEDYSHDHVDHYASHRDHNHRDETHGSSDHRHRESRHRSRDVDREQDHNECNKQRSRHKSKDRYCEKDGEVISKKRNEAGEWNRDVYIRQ

| Structure (SMILES) | EC50 [1, 3] [nM] | EC50 [1, 4] [nM] | Qpatch Emax ([1]; Table 9, n = 1 unless * n = 2) | Biophysics voltage shift (mV) [2, 5] [mV] | Qpatch Emax ([1]; Table 10 comparative examples) | Biophysics voltage shift (mV) ([2]; Table 10 comparative examples) |
| --- | --- | --- | --- | --- | --- | --- |
| COC(=O)C1=C(C)NC2=C(C(=O)OC2)[C@H]1c1ccccc1C (single isomer, unassigned) [CAS# 85825-32-7, reference compound] | 2240 |  |  |  |  |  |
| COC(=O)C1=C(CF)NC2=C(C(=O)OC2)[C@H]1c1cc(F)cc(F)c1CC(F)F (single isomer, unassigned) [Example 12] |  | 80 | 2.3 | −3.4 |  |  |
| COC(=O)C1=C(CF)NC2=C(C(=O)CC2)[C@H]1c1cc(F)cc(F)c1C1CC1 (single isomer, unassigned) [Example 14] |  | 90 | 1.9 | −5.5 |  |  |
| COC(=O)C1=C(CF)NC2=C(C(=O)OC2)[C@H]1c1cccc(F)c1OC(F)F (single isomer, unassigned) [Example 19] |  | 60 | 1.8 | −6.7 |  |  |
| COC(=O)C1=C(CF)NC2=C(C(=O)OC2)[C@H]1c1cc(F)ccc1OC(F)F (single isomer, unassigned) [Example 20] |  | 220 | 3.0 | −8.5 |  |  |
| COC(=O)C1=C(CF)NC2=C(C(=O)OC2)[C@H]1c1cc(F)ccc1C1CC1 (single isomer, unassigned) [Example 21] |  | 30 | 2.8 | −8.1 |  |  |
| COC(=O)C1=C(CF)NC2=C(C(=O)OC2)[C@H]1c1ccccc1C1CC1 (single isomer, unassigned) [Example 22] |  | 50 | 2.8 | −8.6 |  |  |
| COC(=O)C1=C(CF)NC2=C(C(=O)OC2)[C@H]1c1ccccc1C(F)(F)F (single isomer, unassigned) [Example 24] |  | 160 |  |  |  |  |
| COC(=O)C1=C(CF)NC2=C(C(=O)CC2)[C@H]1c1cccc(F)c1CC(F)(F)F (single isomer, unassigned) [Example 25] |  | 40 | 1.7 | −4.2 |  |  |
| COC(=O)C1=C(CF)NC2=C(C(=O)CC2)[C@H]1c1cccc(F)c1CC(F)F (single isomer, unassigned) [Example 26] |  | 300 | 2.0 | −4.3 |  |  |
| COC(=O)C1=C(CF)NC2=C(C(=O)CC2)[C@H]1c1cccc(F)c1[C@@H](C)F (single isomer, unassigned) [Example 27, methyl (R)-4-(3-fluoro-2-((R or S)-1-fluoroethyl)phenyl)-2-(fluoromethyl)-5-oxo-4,5,6,7-tetrahydro-1H-cyclopenta[b]pyridine-3-carboxylate] |  | 30 | 1.5 | −8.7 |  |  |
| COC(=O)C1=C(CF)NC2=C(C(=O)CC2)[C@H]1c1cc(F)cc(F)c1[C@H](C)F (single isomer, unassigned) [Example 29, methyl (R)-4-(3,5-difluoro-2-((S or R)-1-fluoroethyl)phenyl)-2-(fluoromethyl)-5-oxo-4,5,6,7-tetrahydro-1H-cyclopenta[b]pyridine-3-carboxylate] |  | 50 | 1.4 |  |  |  |
| CCc1ccccc1[C@H]1C(C(=O)OC)=C(CF)NC2=C1C(=O)OC2 (single isomer, unassigned) [Example 30] |  | 90 | 1.8 |  |  |  |
| COC(=O)C1=C(C(F)F)NC2=C(C(=O)OC2)[C@H]1c1cccc(F)c1[C@@H](C)F (single isomer, unassigned) [Example 31, methyl (R)-2-(difluoromethyl)-4-(3-fluoro-2-((R or S)-1-fluoroethyl)phenyl)-5-oxo-1,4,5,7-tetrahydrofuro[3,4-b]pyridine-3-carboxylate] |  | 290 | 1.6 |  |  |  |
| CCOC(=O)C1=C(C)NC2=C(C(=O)OC2)[C@H]1c1ccccc1OCc1ccccc1 (single isomer, unassigned) [RS30124, reference compound] | 45 |  |  |  | 4.3 | −15.4 |
| COC(=O)C1=C(C)NC(C)=C([N+](=O)[O-])[C@H]1c1ccccc1C(F)(F)F (single isomer, unassigned) [reference compound] |  |  |  |  | 3.9 |  |
